Experimental data reported in patent publication US4581377A, “Fluorene derivatives” (Nippon Shinyaku Co., Ltd., priority 1983, dated 1986).
Like-named read-outs stand apart in the source and are kept apart here.

Experiments:
Acute Toxicity = conditions: rat, in vivo; rats, p.o.; seven days after oral administration
Description: Four male rats (SD strain) of six weeks age were used as a group and the LD50 values seven days after oral administration was calculated by Weil's method.

acetic acid writhing = test: Acetic acid Writhing Method; type: in vivo, mouse (male, ddY strain); conditions: Mus musculus, read-out: Inhibition against Acetic acid writhing ED30
carrageenin edema = test: Effect on carrageenin edema; type: in vivo, rat (male, SD strain); conditions: Rattus norvegicus, po, read-out: Inhibition against Carrageenin edema ED30
Description: (Effect on carrageenin edema) One group consisting of 5 male rats of SD strain and of five weeks age was used in the experiment. Compounds to be tested were given orally and, three hours thereafter, 0.1 ml of 0.5% λ-carrageenin was injected at the right hind paw subcutaneously. After three hours, volume of the right hind paw was measured using a plethysmometer, then the volume of the hind paw before the carrageenin injection was deducted from the above measured value to obtain the degree of swelling (in ml), the average swelling inhibition rate of the groups treated with the compounds as compared with the control group was calculated and, using a method of least squares, ED30 was determined.

[1] = Action for formation of ulcer; design: species or system rat (male, SD strain); conditions: rat, in vivo, po
Description: (Action for formation of ulcer)
Male rats (SD strain) of five weeks age were fasted for 24 hours and the test compound (as a suspension in CMC; 0.5% concentration) was given orally at a dose of 1 ml/100 g body weight. After 24 hours, 5% pontamine sky blue (0.5 ml) was injected intravenously and, ten minutes thereafter, the rats were killed by anesthetizing with ether and their stomachs were removed therefrom. […] When at least one ulcer was observed, the ulcer formation was decided to be positive and, according to a Weil's method (four rats per group), UD50 (50% ulcer-forming dose) was determined.

[2] = mice, i.p. (head), 0.6% acetic acid i.p. 3 h after oral compound (method), writhings over 20 min
[3] = rats, p.o., compound 3 h before carrageenin, paw volume after 3 h

Structure (SMILES)	LD50 at 168 h (Acute Toxicity) [mg/kg]	ED30 (acetic acid writhing; [2]) [mg/kg]	ED30 (carrageenin edema; [3]) [mg/kg]	TD50 at 24 h [1] [mg/kg]	ED30 (acetic acid writhing; po) [mg/kg]	ED30 (carrageenin edema; 3 h) [mg/kg]	TD50 at 24 h ([1]; rats, p.o., 24 h fasted, stomach observed 24 h after dosing, read-out: UD50 (50% ulcer-forming dose)) [mg/kg]
CC(O)C=Cc1ccc2c(c1)Cc1ccccc1-2 (stereo not shown) [Example 2, 4-(2-fluorenyl)-3-buten-2-ol]	1680	1.8	28.3	90			
CC(=O)CCc1ccc2c(c1)Cc1ccccc1-2 [Example 3, 4-(2-fluorenyl)-butan-2-one]	> 2000	37.2	12.5	182			
CC(O)CCc1ccc2c(c1)Cc1ccccc1-2 (stereo not shown) [Example 9, 4-(2-Fluorenyl)-butan-2-ol]	> 2000	18.4	17.3	68.4			
COc1ccc2c(c1)c(CC(=O)O)c(C)n2C(=O)c1ccc(Cl)cc1 [Indomethacin, reference compound]	29				2.3	7.1	4
